Test results from US8148373B2, “Compounds” (AstraZeneca AB, priority 2008, dated 2012).

Legend:
[1] = molecular target: T1, Adrenergic β2 (H292 cells) (Homo sapiens, UniProt P07550); experiment: Adrenergic β2 Mediated cAMP Production, single concentration 1 μM; type: cell-based; conditions: percentage of the maximum response generated by 1E-07M formoterol; for activation at 1 µM: NCI-H292, 1 μM compound, read-out: β2 (% effect at 1 μM)
T1 construct: endogenous in cells; host or cells: H292 cells
In short: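 cAMP was quantified by AlphaScreen in lysates of H292 cells and reported as a percentage of the 1E-07M formoterol maximum. Before lysis the cells, seeded the previous day, received rolipram (300 μM final) and then test compound at a final 1 μM in 1% DMSO for 60 min at room temperature.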

[2] = molecular target: T2, human muscarinic acetylcholine M3 receptor (M3-ACh) (Homo sapiens, UniProt P20309); experiment: Muscarinic 3 Receptor Binding Assay, % inhibition specific binding at 1 μM; conditions: 1 μM compound, % inhibition specific [3H]-NMS binding
T2 construct: expressed in transfected cells; host or cells: CHO-K1 (Chinese Hamster Ovary) cell membranes
In short: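 Value is % inhibition of specific [3H]N-methyl scopolamine binding (0.1 nM, quarter Kd) by 1 μM compound, using SPA beads precoated with human M3-expressing CHO-K1 membranes. Buffer HEPES pH 7.4 with MgCl2 and 1% DMSO; 16 h at room temperature; 1 μM atropine sets non-specific binding.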

T1 sequence (P07550 whole entry): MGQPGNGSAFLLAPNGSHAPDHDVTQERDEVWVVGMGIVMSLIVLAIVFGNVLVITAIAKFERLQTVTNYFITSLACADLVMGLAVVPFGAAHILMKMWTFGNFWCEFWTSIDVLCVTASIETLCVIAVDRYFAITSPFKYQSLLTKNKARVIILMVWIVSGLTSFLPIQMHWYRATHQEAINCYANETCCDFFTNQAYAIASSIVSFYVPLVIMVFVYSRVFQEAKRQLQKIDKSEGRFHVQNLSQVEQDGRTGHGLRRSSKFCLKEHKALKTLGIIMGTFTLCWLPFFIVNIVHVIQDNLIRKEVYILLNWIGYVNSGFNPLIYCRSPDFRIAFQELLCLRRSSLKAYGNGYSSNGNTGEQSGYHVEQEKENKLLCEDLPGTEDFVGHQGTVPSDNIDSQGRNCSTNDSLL
T2 sequence (P20309 whole entry): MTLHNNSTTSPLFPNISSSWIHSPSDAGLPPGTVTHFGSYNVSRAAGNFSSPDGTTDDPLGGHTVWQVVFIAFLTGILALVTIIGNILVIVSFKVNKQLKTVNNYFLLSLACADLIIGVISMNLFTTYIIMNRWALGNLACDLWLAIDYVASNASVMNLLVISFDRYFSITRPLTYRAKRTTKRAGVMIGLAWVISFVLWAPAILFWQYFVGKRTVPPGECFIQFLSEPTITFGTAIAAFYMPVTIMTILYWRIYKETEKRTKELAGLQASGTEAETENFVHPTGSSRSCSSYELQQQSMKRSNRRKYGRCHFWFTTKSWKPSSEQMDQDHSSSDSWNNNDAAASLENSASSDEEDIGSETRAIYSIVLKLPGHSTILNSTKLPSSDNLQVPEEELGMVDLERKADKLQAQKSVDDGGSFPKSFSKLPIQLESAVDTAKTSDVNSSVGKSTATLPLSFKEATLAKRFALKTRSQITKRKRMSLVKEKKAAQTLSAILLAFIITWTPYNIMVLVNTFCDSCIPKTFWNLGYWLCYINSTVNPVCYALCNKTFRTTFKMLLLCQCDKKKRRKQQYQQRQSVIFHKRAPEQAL

Compound: O=C(c1ccc(-n2ccnc2)cc1)N1CCOC2(CCN(Cc3cc(F)cc(CCNC[C@H](O)c4ccc(O)c5[nH]c(=O)sc45)c3)CC2)C1 [Example 156, (R)-7-(2-(3-((4-(4-(1H-imidazol-1-yl)benzoyl)-1-oxa-4,9-diazaspiro[5.5]undecan-9-yl)methyl)-5-fluorophenethylamino)-1-hydroxyethyl)-4-hydroxybenzo[d]thiazol-2(3H)-one]
- activation at 1 µM [1]: 106%
- inhibition at 1 µM [2]: 3%

Compound: O=C(c1ccc(Cl)s1)N1CCOC2(CCN(CCOc3ccc(CNC[C@H](O)c4ccc(O)c5[nH]c(=O)sc45)cc3)CC2)C1 [Example 231, (R)-7-(2-(4-(2-(4-(5-chlorothiophene-2-carbonyl)-1-oxa-4,9-diazaspiro[5.5]undecan-9-yl)ethoxy)benzylamino)-1-hydroxyethyl)-4-hydroxybenzo[d] thiazol-2(3H)-one]
- activation at 1 µM [1]: 53%
- inhibition at 1 µM [2]: 91%

Compound: Cc1ccn(CC(=O)N2CCOC3(CCN(CCCCCCCCCNC[C@H](O)c4ccc(O)c5[nH]c(=O)sc45)CC3)C2)n1 [Example 204, (R)-4-hydroxy-7-(1-hydroxy-2-(9-(4-(2-(3-methyl-1H-pyrazol-1-yl)acetyl)-1-oxa-4,9-diazaspiro[5.5]undecan-9-yl)nonylamino)ethyl)benzo[d]thiazol-2(3H)-one]
- activation at 1 µM [1]: 101%
- inhibition at 1 µM [2]: 97%

Compound: Cc1ccc2[nH]c(C(=O)N3CCOC4(CCN(Cc5cc(F)cc(CCNC[C@H](O)c6ccc(O)c7[nH]c(=O)sc67)c5)CC4)C3)cc2c1 [Example 157, (R)-7-(2-(3-fluoro-5-((4-(5-methyl-1H-indole-2-carbonyl)-1-oxa-4,9-diazaspiro[5.5]undecan-9-yl)methyl)phenethylamino)-1-hydroxyethyl)-4-hydroxybenzo[d]thiazol-2(3H)-one]
- activation at 1 µM [1]: 102%
- inhibition at 1 µM [2]: 13%

Compound: O=C(c1cc2ccccc2[nH]1)N1CCOC2(CCN(Cc3cc(F)cc(CCNC[C@H](O)c4ccc(O)c5[nH]c(=O)sc45)c3)CC2)C1 [Example 120, (R)-7-(2-(3-((4-(1H-indole-2-carbonyl)-1-oxa-4,9-diazaspiro[5.5]undecan-9-yl)methyl)-5-fluorophenethylamino)-1-hydroxyethyl)-4-hydroxybenzo[d]thiazol-2(3H)-one]
- activation at 1 µM [1]: 101%
- inhibition at 1 µM [2]: 82%

Compound: Cc1n[nH]c(CC(=O)N2CCOC3(CCN(Cc4cc(F)cc(CCNC[C@H](O)c5ccc(O)c6[nH]c(=O)sc56)c4)CC3)C2)n1 [Example 134, (R)-7-(2-(3-fluoro-5-((4-(2-(3-methyl-1H-1,2,4-triazol-5-yl)acetyl)-1-oxa-4,9-diazaspiro[5.5]undecan-9-yl)methyl)phenethylamino)-1-hydroxyethyl)-4-hydroxybenzo[d]thiazol-2(3H)-one]
- activation at 1 µM [1]: 116%
- inhibition at 1 µM [2]: 4%

Compound: Cc1ccoc1C(=O)N1CCOC2(CCN(CCOc3ccc(CNC[C@H](O)c4ccc(O)c5[nH]c(=O)sc45)cc3)CC2)C1 [Example 234, (R)-4-hydroxy-7-(1-hydroxy-2-(4-(2-(4-(3-methylfuran-2-carbonyl)-1-oxa-4,9-diazaspiro[5.5]undecan-9-yl)ethoxy)benzylamino)ethyl) benzo[d]thiazol-2(3H)-one]
- activation at 1 µM [1]: 78%
- inhibition at 1 µM [2]: 80%

Compound: O=C(c1ccsc1Cl)N1CCOC2(CCN(CCOc3ccc(CNC[C@H](O)c4ccc(O)c5[nH]c(=O)sc45)cc3)CC2)C1 [Example 253, (R)-7-(2-(4-(2-(4-(2-chlorothiophene-3-carbonyl)-1-oxa-4,9-diazaspiro[5.5]undecan-9-yl)ethoxy)benzylamino)-1-hydroxyethyl)-4-hydroxy-benzo[d]thiazol-2(3H)-one]
- activation at 1 µM [1]: 73%
- inhibition at 1 µM [2]: 35%

Compound: O=C(COCc1ccccc1)N1CCOC2(CCN(CCOc3ccc(CNC[C@H](O)c4ccc(O)c5[nH]c(=O)sc45)cc3)CC2)C1 [Example 244, (R)-7-(2-(4-(2-(4-(2-(benzyloxy)acetyl)-1-oxa-4,9-diazaspiro[5.5]undecan-9-yl)ethoxy)benzylamino)-1-hydroxyethyl)-4-hydroxy-benzo[d]thiazol-2(3H)-one]
- activation at 1 µM [1]: 60%
- inhibition at 1 µM [2]: 48%

Compound: Cc1nonc1C(=O)N1CCOC2(CCN(Cc3cc(F)cc(CCNC[C@H](O)c4ccc(O)c5[nH]c(=O)sc45)c3)CC2)C1 [Example 151, (R)-7-(2-(3-fluoro-5-((4-(4-methyl-1,2,5-oxadiazole-3-carbonyl)-1-oxa-4,9-diazaspiro[5.5]undecan-9-yl)methyl)phenethylamino)-1-hydroxyethyl)-4-hydroxybenzo[d]thiazol-2(3H)-one]
- activation at 1 µM [1]: 98%
- inhibition at 1 µM [2]: 71%

Compound: Cc1ccccc1C(=O)N1CCOC2(CCN(Cc3cc(F)cc(CCNC[C@H](O)c4ccc(O)c5[nH]c(=O)sc45)c3)CC2)C1 [Example 121, (R)-7-(2-(3-fluoro-5-((4-(2-methylbenzoyl)-1-oxa-4,9-diazaspiro[5.5]undecan-9-yl)methyl)phenethylamino)-1-hydroxyethyl)-4-hydroxybenzo[d]thiazol-2(3H)-one]
- activation at 1 µM [1]: 85%
- inhibition at 1 µM [2]: 28%

Compound: Cc1cc(C(=O)N2CCOC3(CCN(CCOc4ccc(CNC[C@H](O)c5ccc(O)c6[nH]c(=O)sc56)cc4)CC3)C2)sc1C [Example 263]
- β2 (% effect at 1 μM) ([1]; 1 μM compound): 74%
- M3 (% inhibition at 1 μM) [2]: 37%

Compound: O=C(Cc1noc2ccccc12)N1CCOC2(CCN(Cc3cc(F)cc(CCNC[C@H](O)c4ccc(O)c5[nH]c(=O)sc45)c3)CC2)C1 [Example 144, (R)-7-(2-(3-((4-(2-(benzo[d]isoxazol-3-yl)acetyl)-1-oxa-4,9-diazaspiro[5.5]undecan-9-yl)methyl)-5-fluorophenethylamino)-1-hydroxyethyl)-4-hydroxybenzo[d]thiazol-2(3H)-one]
- activation at 1 µM [1]: 101%
- inhibition at 1 µM [2]: 35%

Compound: Cc1nc(CC(=O)N2CCOC3(CCN(Cc4cc(F)cc(CCNC[C@H](O)c5ccc(O)c6[nH]c(=O)sc56)c4)CC3)C2)cs1 [Example 166, (R)-7-(2-(3-fluoro-5-((4-(2-(2-methylthiazol-4-yl)acetyl)-1-oxa-4,9-diazaspiro[5.5]undecan-9-yl)methyl)phenethylamino)-1-hydroxyethyl)-4-hydroxybenzo[d]thiazol-2(3H)-one]
- activation at 1 µM [1]: 95%
- inhibition at 1 µM [2]: 69%

Compound: Cc1nc(C)c(CC(=O)N2CCOC3(CCN(CCCCCCCCCNC[C@H](O)c4ccc(O)c5[nH]c(=O)sc45)CC3)C2)s1 [Example 211, (R)-7-(2-(9-(4-(2-(2,4-dimethylthiazol-5-yl)acetyl)-1-oxa-4,9-diazaspiro[5.5]undecan-9-yl)nonylamino)-1-hydroxyethyl)-4-hydroxybenzo[d]thiazol-2(3H)-one]
- activation at 1 µM [1]: 91%
- inhibition at 1 µM [2]: 68%

Compound: O=C(c1ccsc1Cl)N1CCOC2(CCN(CCCCCCCCCNC[C@H](O)c3ccc(O)c4[nH]c(=O)sc34)CC2)C1 [Example 212, (R)-7-(2-(9-(4-(2-chlorothiophene-3-carbonyl)-1-oxa-4,9-diazaspiro[5.5]undecan-9-yl)nonylamino)-1-hydroxyethyl)-4-hydroxybenzo[d]thiazol-2(3H)-one]
- activation at 1 µM [1]: 93%
- inhibition at 1 µM [2]: 88%

Compound: O=C(c1ccc2ncsc2c1)N1CCOC2(CCN(Cc3cc(F)cc(CCNC[C@H](O)c4ccc(O)c5[nH]c(=O)sc45)c3)CC2)C1 [Example 132, (R)-7-(2-(3-((4-(benzo[d]thiazole-6-carbonyl)-1-oxa-4,9-diazaspiro[5.5]undecan-9-yl)methyl)-5-fluorophenethylamino)-1-hydroxyethyl)-4-hydroxybenzo[d]thiazol-2(3H)-one]
- activation at 1 µM [1]: 92%
- inhibition at 1 µM [2]: 85%

Compound: Cc1cc(C(=O)N2CCOC3(CCN(Cc4cc(F)cc(CCNC[C@H](O)c5ccc(O)c6[nH]c(=O)sc56)c4)CC3)C2)oc1C [Example 180, (R)-7-(2-(3-((4-(4,5-dimethylfuran-2-carbonyl)-1-oxa-4,9-diazaspiro[5.5]undecan-9-yl)methyl)-5-fluorophenethylamino)-1-hydroxyethyl)-4-hydroxybenzo[d]thiazol-2(3H)-one]
- activation at 1 µM [1]: 92%
- inhibition at 1 µM [2]: 51%

Compound: O=C(Cc1ccsc1)N1CCOC2(CCN(CCOc3ccc(CNC[C@H](O)c4ccc(O)c5[nH]c(=O)sc45)cc3)CC2)C1 [Example 233, (R)-4-hydroxy-7-(1-hydroxy-2-(4-(2-(4-(2-(thiophen-3-yl)acetyl)-1-oxa-4,9-diazaspiro[5.5]undecan-9-yl)ethoxy)benzylamino)ethyl) benzo[d]thiazol-2(3H)-one]
- activation at 1 µM [1]: 82%
- inhibition at 1 µM [2]: 51%

Compound: Cc1csc(C(=O)N2CCOC3(CCN(CCOc4ccc(CNC[C@H](O)c5ccc(O)c6[nH]c(=O)sc56)cc4)CC3)C2)c1 [Example 254, (R)-4-hydroxy-7-(1-hydroxy-2-(4-(2-(4-(4-methylthiophene-2-carbonyl)-1-oxa-4,9-diazaspiro[5.5]undecan-9-yl)ethoxy)benzylamino)ethyl) benzo[d]thiazol-2(3H)-one]
- activation at 1 µM [1]: 71%
- inhibition at 1 µM [2]: 92%

Compound: Cc1occc1C(=O)N1CCOC2(CCN(Cc3cc(F)cc(CCNC[C@H](O)c4ccc(O)c5[nH]c(=O)sc45)c3)CC2)C1 [Example 131, (R)-7-(2-(3-fluoro-5-((4-(2-methylfuran-3-carbonyl)-1-oxa-4,9-diazaspiro[5.5]undecan-9-yl)methyl)phenethylamino)-1-hydroxyethyl)-4-hydroxybenzo[d]thiazol-2(3H)-one]
- activation at 1 µM [1]: 95%
- inhibition at 1 µM [2]: 41%
